In patent US20220390432A1, “METHODS OF CHARACTERIZING AND UTILIZING AGENT-CONDENSATE INTERACTIONS” (Whitehead Institute for Biomedical Research, priority 2019, published 2022):
Entries after “also recorded” stand apart in the source; their conditions may differ.

How the values were obtained:
MED1 droplets = molecular target: T1, MED1 droplets (Homo sapiens, UniProt Q15648); assay: In vitro droplet drug chase out experiment; type: binding; conditions: 5 μM cisplatin-TR, 10 μM MED1, unlabeled compound 10, 100 or 500 μM
T1 construct: MED1—amino acids 600-1581; 6xHis (N); made in house; host or cells: LOBSTR cells (E. coli)
T1 sequence (Q15648 600-1581): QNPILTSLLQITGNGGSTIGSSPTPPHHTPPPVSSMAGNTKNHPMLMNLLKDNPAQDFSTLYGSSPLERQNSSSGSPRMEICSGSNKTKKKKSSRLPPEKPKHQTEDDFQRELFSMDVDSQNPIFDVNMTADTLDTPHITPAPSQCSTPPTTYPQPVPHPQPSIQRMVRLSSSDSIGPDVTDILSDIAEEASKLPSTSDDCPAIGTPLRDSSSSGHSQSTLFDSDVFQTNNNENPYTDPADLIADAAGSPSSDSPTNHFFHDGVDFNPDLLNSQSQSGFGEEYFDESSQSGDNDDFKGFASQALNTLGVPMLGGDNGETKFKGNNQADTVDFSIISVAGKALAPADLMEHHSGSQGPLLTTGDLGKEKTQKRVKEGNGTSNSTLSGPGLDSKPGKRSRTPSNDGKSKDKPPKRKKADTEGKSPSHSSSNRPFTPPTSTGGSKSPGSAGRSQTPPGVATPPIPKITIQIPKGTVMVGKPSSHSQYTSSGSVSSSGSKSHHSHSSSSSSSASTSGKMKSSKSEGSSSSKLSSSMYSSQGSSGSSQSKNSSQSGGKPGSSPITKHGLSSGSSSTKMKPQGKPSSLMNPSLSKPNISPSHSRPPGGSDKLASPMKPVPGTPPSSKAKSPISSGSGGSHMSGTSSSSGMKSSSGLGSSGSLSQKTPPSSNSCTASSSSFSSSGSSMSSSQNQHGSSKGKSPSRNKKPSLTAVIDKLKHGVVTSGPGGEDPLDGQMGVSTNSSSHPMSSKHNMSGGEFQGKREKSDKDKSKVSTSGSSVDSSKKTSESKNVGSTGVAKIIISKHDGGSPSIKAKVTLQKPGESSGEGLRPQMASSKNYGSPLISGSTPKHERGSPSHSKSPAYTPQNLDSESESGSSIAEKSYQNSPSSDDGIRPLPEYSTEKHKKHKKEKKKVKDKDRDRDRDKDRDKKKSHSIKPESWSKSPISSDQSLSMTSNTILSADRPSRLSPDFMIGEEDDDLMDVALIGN
Description: For chase-out experiments 5 μM labeled cisplatin-TR was added to a MED1 droplets reaction (10 μM MED1, 50 mM Tris-HCl pH 7.5, 10% glycerol, 1 mM DTT, 10% PEG) in order to form MED1 droplets concentrated with Cisplatin-TR. Unlabeled transplatin or unlabeled cisplatin (vehicle, 10 μM, 100 μM, or 500 μM) were added to the droplet mixture and the amount of labeled cisplatin-TR remaining in the droplet is measured after chase out. 100 μM fluorescent FLTX1 was added to a MED1 droplets reaction (10 μM MED1, 50 mM Tris-HCl pH 7.5, 10% glycerol, 1 mM DTT, 10% PEG) in order to form MED1 droplets concentrated with FLTX1.

[1] = Droplet formation assay of small molecule alone without any protein; type: physicochemical; conditions: without any protein added
Description: Recombinant BFP, GFP, or mCherry fusion proteins were concentrated and desalted to an appropriate protein concentration and 125 mM NaCl using Amicon Ultra centrifugal filters (30K MWCO, Millipore). […] […] The protein solution was immediately loaded onto glass bottom 384 well plate (Cellvis P384-1.5H-N) and imaged with an Andor confocal microscope with a 150× objective. Unless indicated, images presented are of droplets settled on the glass coverslip.

MED1 aromatic mutant = molecular target: T2, MED1 aromatic mutant (Homo sapiens, UniProt Q15648, F1031A/F1273A/F1351A/F1564A/F657A/F708A/F713A/F724A/F821A/F826A/F858A/F859A/F865A/F878A/F883A/F895A/F898A/F920A/F931A/W1533A/Y1083A/Y1132A/Y1431A/Y1456A/Y1476A/Y1492A/Y661A/Y752A/Y835A/Y882A); assay: In vitro droplet assay with MED1 aromatic mutant; type: binding; conditions: 10% PEG, 125 mM NaCl, 10 μM protein, 5 μM small molecule
T2 construct: MED1—aromatic mutant amino acids 600-1581, all aromatic residues changed to alanine; 6xHis (N); made in house; host or cells: LOBSTR cells (E. coli)
Description: MED1—aromatic mutant amino acids 600-1581, all aromatic residues changed to alanine.
Recombinant BFP, GFP, or mCherry fusion proteins were concentrated and desalted to an appropriate protein concentration and 125 mM NaCl using Amicon Ultra centrifugal filters (30K MWCO, Millipore). Recombinant protein was added too. […] The protein solution was immediately loaded onto glass bottom 384 well plate (Cellvis P384-1.5H-N) and imaged with an Andor confocal microscope with a 150× objective. Unless indicated, images presented are of droplets settled on the glass coverslip.
To analyze in vitro droplet experiments, custom Python scripts using the scikit-image package were written to identify droplets and characterize their size, shape and intensity. […] After segmentation, mean intensity for each droplet was calculated while excluding pixels near the phase interface, and background-corrected by subtracting intensity of dark images of droplet formation buffer only. Droplets identified in the channel of the fluorescent protein from ten independent fields of view were quantified for each experiment. The maximum intensity of signal within the droplets was calculated for each channel, the maximum intensity in the drug channel was termed “maximum drug intensity”. […]

[2] = tested on: DNA in MED1 or HP1α droplets; assay: Cisplatin-DNA engagement assay; type: biochemical; conditions: size-shift on a bioanalyzer; cisplatin 0-2 mM
Description: MED1-IDR-BFP and HP1a-BFP droplets were formed by mixing 10 μM protein with the droplet formation buffer containing 50 mM Tris-HCl pH 7.5, 100 mM NaCl, 10% PEG 8000, 10% glycerol, 1 mM DTT and 5 ng/ul DNA in a 10 μl reaction volume. The droplet reactions were incubated for 30 min at RT. Next, increasing concentrations of activated Cisplatin (0, 0.5, 0.75, 1, 1.5, and 2 mM) were added to the droplet reactions and incubated for another 30 min at RT. The reactions are then treated with 1 μl of Proteinase K (Invitrogen, 20 mg/ml) for 4 hr at 55° C. Platination of DNA was visualized by size-shift on a bioanalyzer.

[3] = tested on: MED1 genomic occupancy in HCT116 cells; assay: MED1 ChIP-seq in HCT116 cells; type: cell-based, human; conditions: 50 μM cisplatin for 6 hours
[4] = tested on: super-enhancers in Hela cells; conditions: cisplatin treated Hela cells, published data (41); cited from earlier work

N.N.[Cl][Pt][Cl] [cisplatin]
chase out of cisplatin-TR from MED1 droplets by unlabeled compound (MED1 droplets; listed as unlabeled cisplatin): able to chase out cisplatin-TR | chase out of cisplatin-TR from MED1 droplets by unlabeled compound (MED1 droplets; listed as unmodified cisplatin): could be chased out of the condensate | droplet formation of small molecule alone [1]: diffuse fluorescent signal | partitioning into MED1 aromatic mutant droplets (MED1 aromatic mutant): no longer partitioned; also recorded: substantially reduced | DNA platination in MED1 versus HP1α condensates [2]: more efficiently platinated in MED1 condensates than in HP1α condensates | MED1 ChIP-seq signal after cisplatin [3]: preferential loss of MED1 ChIP-seq signal at super-enhancers; also recorded: reduced | location of cisplatin-modified DNA (platinated-DNA pull-down sequencing) [4]: preferentially occurs at super-enhancers
